Columns and labels:
MeCP2 KO mice = test: Symptom scoring in Rett syndrome model; assay type: in vivo, mouse
Experimental: CBDV was administered daily at the dose of 2, 20 and 200 mg/kg i.p. starting from PND 28 and the following signs were scored every other day: hindlimb clasping (indication of motor imbalance), tremor, gait (measure of coordination), breathing, mobility and general condition.
Starting from PND 28, mice received a daily intraperitoneal injection of CBDV (or vehicle) at the dose of 2, 20 and 200 mg/kg. Animals were then scored every other day to evaluate the effect of CBDV treatment on motor symptoms (hindlimb clasping, gait, mobility) as well as neurological signs and general conditions (breathing abnormalities, tremors and general condition) present in MeCP2 knockout (KO) mice.
Each of the six symptoms was scored from 0 to 2 (0 corresponds to the symptom being absent or the same as in the wild type (WT) animal; 1 when the symptom was present; 2 when the symptom was severe).
Mobility: the mouse is observed when placed on bench, then when handled gently. 0=as WT. 1=reduced movement when compared with WT: extended freezing period when first placed on bench and longer periods spent immobile. 2=no spontaneous movement when placed on the bench; mouse can move in response to a gentle prod or a food pellet placed nearby.
Gait: 0=as WT. 1=hind legs are spread wider than WT when walking or running with reduced pelvic elevation, resulting in a ‘waddling’ gait. 2=more severe abnormalities: tremor when feet are lifted, walks backward or ‘bunny hops’ by lifting both rear feet at once.
Hindlimb clasping: mouse observed when suspend by holding base of the tail. 0=legs splayed outward. 1=hindlimbs are drawn toward each other (without touching) or one leg is drawn into the body. 2=both legs are pulled in tightly, either touching each other or touching the body.
Tremor: mouse observed while standing on the flat palm of the hand. 0=no tremor. 1=intermittent mild tremor. 2=continuous tremor or intermittent violent tremor.
Breathing: movement of flanks observed while animal is standing still. 0=normal breathing. 1=periods of regular breathing interspersed with short periods of more rapid breathing or with pauses in breathing. 2=very irregular breathing-gasping or panting.
General condition: mouse observed for indicators of general well-being such as coat condition, eyes and body stance. 0=clean shiny coat, clear eyes, and normal stance. 1=eyes dull, coat dull/un-groomed, and somewhat hunched stance. 2=eyes crusted or narrowed, piloerection, and hunched posture.

PCP-treated rats = test: Social interaction test, sub-chronic PCP model of schizophrenia; assay type: in vivo, rat
Experimental: Female hooded-Lister rats were used for this experiment. Rats were housed in groups of 5 under standard laboratory conditions under a 12 hr light: dark cycle, lights on at 0700 hr. Testing was carried out in the light phase.
Rats were randomly assigned to two treatment groups and treated with vehicle, n=20 (distilled water, i.p.) or Phencyclidine hydrochloride (PCP), n=100 (2 mg/kg, i.p. twice daily for 7-days). PCP was dissolved in distilled water. This was followed by a 7-day wash out period before the rats were tested following acute treatment with CBDV, risperidone or vehicle.
Risperidone (0.1 mg/kg) was dissolved in a minimum volume of acetic acid, made up to volume with distilled water and pH adjusted to 6 with 0.1M NaOH and administered via the i.p. route in a volume of 1 ml/kg, 60 min prior to testing.
CBDV at 2, 10 or 20 mg/kg was dissolved in 2:1:17 (Ethanol:Cremofor:Saline 0.9%) and administered via the i.p. route in a volume of 5 ml/kg, 60 min prior to testing.
The social interaction test is performed in an open-field comprising a square box made of Plexiglas (52×52×31 cm) placed 27 cm above the floor on a moveable trolley. The floor of the box is white with black gridlines forming 9 identical squares on it. All other walls are black. A video camera connected to a video recorder and monitor is positioned above the box. The object used for the test consists of a heavy structure made of metal that cannot be displaced by the animals.
The rats were habituated to the test environment and arena prior to the test day. Habituation consists of placing all rats from one cage together in the empty test arena for one hour for three days including the day before the test day.
Pairs of rats, weight matched (15-20 g) and unfamiliar to each other, receiving either no treatment (n=70 “conspecific” rats) or different treatments (PCP and Vehicle; n=10 “tested” rats or PCP+Drug; n=50 “tested” rats) were placed in the test arena together for 10 min and behaviour assessed as described below.
An inanimate object such as an unopened drinks can is also placed in the centre of the arena to measure any differences in interaction of the test animal with an unfamiliar animal as opposed to an unfamiliar object. After each 10 minute trial, the object and arena are cleaned with 10% alcohol in an attempt to remove traces of any olfactory cues. All testing is carried out under standard room illumination levels (70 cd/m2).
Behaviour in both trials was recorded on video for subsequent blind scoring. A behavioural scoring software program (Hindsight, Scientific programming services) is used to score the following parameters: • Investigative sniffing behaviour: sniffing the conspecific's snout or parts of the body including the anogenital region; • Following: rat moves after the conspecific i.e. a vehicle treated rat of the same species, around the arena; • Avoidances: actively turning away when approached by the conspecific animal; • Investigation of object: exploration of object placed in centre of the arena; and • Locomotor activity is recorded by counting the total number of sectors (i.e. lines) crossed by the test rat. Results

Ube3am-/p+ (AS) mice = test: Audiogenic seizure susceptibility in Angelman syndrome model; assay type: in vivo, mouse
Experimental: Heterozygous mice with maternal deficiency of Ube3A (Ube3am−/p+) and wild type (Ube3am+/p+) were purchased from The Jackson Laboratory (Jackson code: B6.129S7-Ube3a tm1Alb/J) and maintained in a C57BL/6 background.
For the audiogenic seizure tests CBDV was administered at 20, 200 and 400 mg/kg.
Seizure susceptibility: Audiogenic seizures were induced by vigorously scraping scissors across the metal grating of the cage lid which produces a 100 DB high frequency loud noise. This was done for 20 seconds. This test consists of 3 phases. In phase 1 all mice were tested for epilepsy. In phase 2 all mice were injected daily with either vehicle or a drug for 7 or 10 days. In phase 3 mice were tested for epilepsy (one hour after last injection).

## C=C(C)[C@@H]1CCC(C)=C[C@H]1c1c(O)cc(CCC)cc1O [CBDV, Cannabidivarin]
MeCP2 KO mice; 2 mg/kg, PND 45, 47, 49, 55, 56, 57, 58, 60 and 64, KO mice
  total symptom score (FIG. 8): significantly improved total symptom score at every time point
MeCP2 KO mice; 2 mg/kg, PND 56 to 60, KO mice
  breathing score (FIG. 6B): significantly improve breathing
MeCP2 KO mice; 2 mg/kg, PND 63, KO mice
  tremor score (FIG. 6A): still protective
MeCP2 KO mice; 20 mg/kg, KO mice
  general conditions (coat and eyes) (FIG. 7A): significantly effective only at the earlier time point (PND 52)
MeCP2 KO mice; 20 mg/kg, PND 57, KO mice
  breathing score (FIG. 6B): significant effect
MeCP2 KO mice; 200 mg/kg, KO mice
  hindlimb clasping score (FIG. 6C): did not significantly affect
  total symptom score (FIG. 8): exerted beneficial effect at a later time point (PND 47) and its protective effect was evident until PND 58
MeCP2 KO mice; 200 mg/kg, PND 53 to 57, KO mice
  gait score (FIG. 6D): significantly improved gait
MeCP2 KO mice; 200 mg/kg, PND 55 and 63, KO mice
  tremor score (FIG. 6A): still able to reduce tremors
MeCP2 KO mice; 200 mg/kg, PND 57 and 60, KO mice
  breathing score (FIG. 6B): effective
MeCP2 KO mice; 2 and 200 mg/kg, PND 52-64, KO mice
  general conditions (coat and eyes) (FIG. 7A): significantly improved
MeCP2 KO mice; KO mice
  mobility score (FIG. 7B): reached statistical significance only at PND 64
MeCP2 KO mice; all three doses, KO mice vs KO-vehicle
  total symptom score (FIG. 8): delay and attenuate the appearance of the phenotype
MeCP2 KO mice; all three doses, PND 45-49, KO mice
  tremor score (FIG. 6A): significantly delaying and reducing tremors
MeCP2 KO mice; lower doses (2, 20 mg/kg), PND 47 and 49, KO mice
  hindlimb clasping score (FIG. 6C): significantly attenuate hindlimb clasping
PCP-treated rats; CBDV 20 mg/kg
  time spent avoiding the other rat (FIG. 18C): reduce the amount of time
  time spent following the other rat (FIG. 18B): increased the amount of time
PCP-treated rats; CBDV 10 and 20 mg/kg
  time spent sniffing the other rat (FIG. 18A): significantly increased
PCP-treated rats; CBDV acute i.p.
  PCP effects on social interaction (sniffing, following, avoiding) (FIG. 18): reverse these effects in a statistically significant manner
Ube3am-/p+ (AS) mice; 20 mg/kg or 200 mg/kg, 7 or 10 days treatment
  seizure susceptibility, number of mice with seizures vs baseline (FIG. 15): no effect
Ube3am-/p+ (AS) mice; 400 mg/kg
  number of mice with seizures (FIG. 15): statistically significant decrease

Source: patent US11752111B2, “Use of cannabidivarin in the treatment of autism spectrum disorder, associated disorders and schizophrenia” (GW Research Limited, priority 2016, dated 2023)
